Drawing on patent publication US20180162862A1 (President and Fellows of Harvard College, priority 2015, published 2018), this text covers MIC for 20 molecules.

Common to all, as to type: cell-based
The subject of experiment [1] is S. aureus ATCC 43300. The experiment in a line: MIC test according to CLSI M7-A9, S. aureus ATCC 43300. Conditions: Staphylococcus aureus, ATCC43300; CLSI M7-A9, CAMHB, 24 h (Table 3); read-out: S. aureus ATCC 43300 MIC. The procedure:
(§1) MIC Test (S. aureus ATCC 29213, S. aureus ATCC 43300 and S. aureus Newman)
(§2) Susceptibility testing of S. aureus ATCC 29213, ATCC 43300 and Newman was performed according to Clinical Laboratory Standard Institute (CLSI) guidelines M7-A9. Test articles were stored at room temperature prior to use, then dissolved in filtered sterile DMSO. Stock DMSO solutions were diluted further in cation-adjusted Mueller Hinton broth (CAMHB) to provide appropriate test concentrations. Cultures of S. aureus (ATCC 29213, ATCC 43300 or Newman) were added in accordance with CLSI guidelines and plates incubated at 37° C. in air for 24 h. Endpoints were determined visually (and by spectrophotometer at 600 nm) and the minimum inhibitory concentration (MIC) defined as the lowest concentration of test articles resulting in complete inhibition of visible bacterial growth. Results are detailed in Table 2 (S. aureus ATCC 29213 and ATCC 43300) and Table 3 (S. aureus ATCC 29213, ATCC 43300 and Newman).

Experiment [2] has as its system S. aureus Newman. Briefly: MIC test according to CLSI M7-A9, S. aureus Newman. Conditions: Staphylococcus aureus, CLSI M7-A9, CAMHB, 24 h (Table 3), read-out: S. aureus ATCC Newman MIC. The procedure: as §1, §2
The test system of experiment [3] is S. aureus ATCC 29213. The experiment in a line: MIC test according to CLSI M7-A9, S. aureus ATCC 29213. Particulars: Staphylococcus aureus, ATCC29213; CLSI M7-A9, CAMHB, 24 h (Table 3); read-out: S. aureus ATCC 29213 MIC. The procedure:
as §1, §2

In brackets after ≈: the same amount, converted by molar mass.

As a reminder, the MIC is the lowest concentration that inhibits growth of the organism. For `O=c1cc2nc(C34CC5CC(CC(C5)C3)C4)nc(NCCCNC3Cc4ccccc4C3)n2[nH]1` [Example 101, 2-(adamantan-1-yl)-4-({3-[(2,3-dihydro-1H-inden-2-yl)amino]propyl}amino)-6H,7H-pyrazolo[1,5-a][1,3,5]triazin-7-one], the MIC in experiment [1], in experiment [2] and in experiment [3] was 8 µg/mL (≈ 17.4 µM) each time.
On to `CC(C)(C)c1ccc(-c2nc(NCCCNCc3ccccc3)n3[nH]c(=O)cc3n2)cc1` [Example 74, 4-{[3-(benzylamino)propyl]amino}-2-(4-tert-butylphenyl)-6H,7H-pyrazolo[1,5-a][1,3,5]triazin-7-one], for which the MIC in experiment [1], in experiment [2] and in experiment [3] was 16 µg/mL (≈ 37.2 µM) throughout.
For the molecule `CN(CCNc1nc(-c2ccc(C(C)(C)C)cc2)nc2cc(=O)[nH]n12)C1CCCCC1` [Example 83, 2-(4-tert-butylphenyl)-4-({2-[cyclohexyl(methyl)amino]ethyl}amino)-6H,7H-pyrazolo[1,5-a][1,3,5]triazin-7-one], the MIC in experiment [1], in experiment [2] and in experiment [3] was 32 µg/mL (≈ 75.7 µM) each time.
As for `CC(C)(C)c1ccc(-c2nc3c(Cc4ccccc4)c(=O)[nH]n3c(=S)[nH]2)cc1` [Example 106, 8-benzyl-2-(4-tert-butylphenyl)-4-sulfanylidene-3H,4H,6H,7H-pyrazolo[1,5-a][1,3,5]triazin-7-one], the values for the MIC in experiment [1], in experiment [2] and in experiment [3] were 2 µg/mL (≈ 5.12 µM), 1 µg/mL (≈ 2.56 µM) and 2 µg/mL (≈ 5.12 µM), respectively.
Consider `Cc1oc(C(C)(C)C)cc1-c1nc(NCCCO)n2[nH]c(=O)cc2n1` [Example 93, 2-(5-tert-butyl-2-methylfuran-3-yl)-4-[(3-hydroxypropyl)amino]-6H,7H-pyrazolo[1,5-a][1,3,5]triazin-7-one], for which the MIC in experiment [1] was 32 µg/mL (≈ 92.6 µM); in experiment [2], 16 µg/mL (≈ 46.3 µM); in experiment [3], 32 µg/mL (≈ 92.6 µM).
Regarding `O=c1[nH]n2c(NCCCN3CCc4ccccc4C3)nc(C34CC5CC(CC(C5)C3)C4)nc2c1Cc1ccccc1` [Example 124, 2-(adamantan-1-yl)-8-benzyl-4-{[3-(1,2,3,4-tetrahydroisoquinolin-2-yl)propyl]amino}-6H,7H-pyrazolo[1,5-a][1,3,5]triazin-7-one], the MIC in experiment [2] was determined as 2 µg/mL (≈ 3.64 µM); in experiment [3], 128 µg/mL (≈ 233 µM).
The like results for `CN(C)CCCNc1nc(C23CC4CC(CC(C4)C2)C3)nc2c(Cc3ccccc3)c(=O)[nH]n12` [Example 123, 2-(adamantan-1-yl)-8-benzyl-4-{[3-(dimethylamino)propyl]amino}-6H,7H-pyrazolo[1,5-a][1,3,5]triazin-7-one] were, in that order, 4 µg/mL (≈ 8.68 µM) and 4 µg/mL (≈ 8.68 µM).
In the same order, the values of `CCCCNc1nc(C(C)(C)C)nc2cc(=O)[nH]n12` [Example 96, 2-tert-butyl-4-(butylamino)-6H,7H-pyrazolo[1,5-a][1,3,5]triazin-7-one] are 32 µg/mL (≈ 122 µM) and 128 µg/mL (≈ 486 µM).
Take `CC(C)(C)c1ccc(-c2nc(NCCCc3ccccc3)n3[nH]c(=O)c(Cc4c[nH]cn4)c3n2)cc1` [Example 111, 2-(4-tert-butylphenyl)-8-(1H-imidazol-4-ylmethyl)-4-[(3-phenylpropyl)amino]-6H,7H-pyrazolo[1,5-a][1,3,5]triazin-7-one]: the MIC in experiment [2] is 2 µg/mL (≈ 4.15 µM); in experiment [3], 4 µg/mL (≈ 8.31 µM).
For `CC(C)(C)c1nc(NCCCN2CCc3ccccc3C2)n2[nH]c(=O)cc2n1` [Example 97, 2-tert-butyl-4-{[3-(1,2,3,4-tetrahydroisoquinolin-2-yl)propyl]amino}-6H,7H-pyrazolo[1,5-a][1,3,5]triazin-7-one], the MIC in experiment [2] amounted to 64 µg/mL (≈ 168 µM); in experiment [3], 128 µg/mL (≈ 336 µM).
The like results for `O=c1[nH]n2c(NCCCO)nc(C34CC5CC(CC(C5)C3)C4)nc2c1Cc1ccccc1` [Example 122, 2-(adamantan-1-yl)-8-benzyl-4-[(3-hydroxypropyl)amino]-6H,7H-pyrazolo[1,5-a][1,3,5]triazin-7-one] were, in that order, 8 µg/mL (≈ 18.5 µM) and 8 µg/mL (≈ 18.5 µM).
`Cc1ccc(Cc2c(=O)[nH]n3c(NCCCNC4Cc5ccccc5C4)nc(-c4ccc(C(C)(C)C)cc4)nc23)cn1` [Example 116, 2-(4-tert-butylphenyl)-4-({3-[(2,3-dihydro-1H-inden-2-yl)amino]propyl}amino)-8-[(6-methylpyridin-3-yl)methyl]-6H,7H-pyrazolo[1,5-a][1,3,5]triazin-7-one]: the MIC in experiment [2] and in experiment [3] was 4 µg/mL (≈ 7.12 µM) in each case.
For `CC(C)(C)c1ccc(-c2nc(NCC3CN(Cc4ccccc4)CCO3)n3[nH]c(=O)cc3n2)cc1` (stereo not drawn) [Example 79, 4-{[(4-benzylmorpholin-2-yl)methyl]amino}-2-(4-tert-butylphenyl)-6H,7H-pyrazolo[1,5-a][1,3,5]triazin-7-one], the MIC is 16 µg/mL (≈ 33.9 µM) in experiment [2] and 32 µg/mL (≈ 67.7 µM) in experiment [3].
With `CC(C)(C)c1ccc(-c2nc(NCCCNC3Cc4ccccc4C3)n3[nH]c(=O)c(Cc4ccccc4)c3n2)cc1` [Example 108, 8-benzyl-2-(4-tert-butylphenyl)-4-({3-[(2,3-dihydro-1H-inden-2-yl)amino]propyl}amino)-6H,7H-pyrazolo[1,5-a][1,3,5]triazin-7-one], the MIC was 2 µg/mL (≈ 3.66 µM) in experiment [2] and 0.5 µg/mL (≈ 0.915 µM) in experiment [3].
On to `CC(C)(C)c1ccc(-c2nc3c(CC45CC6CC(CC(C6)C4)C5)c(=O)[nH]n3c(=S)[nH]2)cc1` [Example 118, 8-(adamantan-1-ylmethyl)-2-(4-tert-butylphenyl)-4-sulfanylidene-3H,4H,6H,7H-pyrazolo[1,5-a][1,3,5]triazin-7-one], for which the figures for the MIC in experiment [2] and in experiment [3] were 0.5 µg/mL (≈ 1.11 µM) and 8 µg/mL (≈ 17.8 µM), respectively.
`CC(C)(C)c1ccc(-c2nc(NCC(F)(F)CNC3Cc4ccccc4C3)n3[nH]c(=O)cc3n2)cc1` [Example 89, 2-(4-tert-Butylphenyl)-4-({3-[(2,3-dihydro-1H-inden-2-yl)amino]-2,2-difluoropropyl}amino)-6H,7H-pyrazolo[1,5-a][1,3,5]triazin-7-one]: the MIC in experiment [2] and in experiment [3] was 8 µg/mL (≈ 16.2 µM) throughout.
With `O=c1cc2nc(C34CC5CC(CC(C5)C3)C4)nc(NCCCN3CCc4ccccc4C3)n2[nH]1` [Example 102, 2-(adamantan-1-yl)-4-{[3-(1,2,3,4-tetrahydroisoquinolin-2-yl)propyl]amino}-6H,7H-pyrazolo[1,5-a][1,3,5]triazin-7-one], the MIC in experiment [2] turned out to be 16 µg/mL (≈ 34.9 µM); in experiment [3] it was 64 µg/mL (≈ 140 µM).
For `Cc1ccc(Cc2c(=O)[nH]n3c(N4CCN(C)CC4)nc(-c4ccc(C(C)(C)C)cc4)nc23)cn1` [Example 117, 2-(4-tert-butylphenyl)-4-(4-methylpiperazin-1-yl)-8-[(6-methylpyridin-3-yl)methyl]-6H,7H-pyrazolo[1,5-a][1,3,5]triazin-7-one], the MIC in experiment [2] and in experiment [3] was 128 µg/mL (≈ 271 µM) each time.
As for `CC(C)(C)c1ccc(-c2nc(NCCCO)n3[nH]c(=O)c(CC45CC6CC(CC(C6)C4)C5)c3n2)cc1` [Example 119, 8-(adamantan-1-ylmethyl)-2-(4-tert-butylphenyl)-4-[(3-hydroxypropyl)amino]-6H,7H-pyrazolo[1,5-a][1,3,5]triazin-7-one], the MIC in experiment [2] and in experiment [3] was 16 µg/mL (≈ 32.7 µM) in each case.
For the molecule `CC(C)(C)c1ccc(-c2nc(NCCCN3CCCc4ccccc43)n3[nH]c(=O)cc3n2)cc1` [Example 76, 2-(4-tert-butylphenyl)-4-{[3-(1,2,3,4-tetrahydroquinolin-1-yl)propyl]amino}-6H,7H-pyrazolo[1,5-a][1,3,5]triazin-7-one], the MIC in experiment [2] and in experiment [3] was 4 µg/mL (≈ 8.76 µM) in each case.
